Test results: patent publication US20250179049A1, “SALTS OF HETEROCYCLIC INHIBITORS OF MONOCARBOXYLATE TRANSPORTER 4 FOR THE TREATMENT OF DISEASE” (Vettore, LLC, priority 2022, published 2025)
Counter-ions that a name gives are not always drawn.

Key:
[1] = test system: bleomycin-induced lung fibrosis; assay: Bleomycin-induced lung fibrosis model; type: in vivo, mice; conditions: therapeutic mode; Compound 1 3 mg/kg BID; pirfenidone 100 mg/kg BID; nintedanib 50 mg/kg QD, oral gavage
Experimental: The reduction of lung fibrosis upon MCT4 inhibition is coupled with changes in serum metabolites that indicates turnover of extracellular matrix protein and increased fatty acid oxidation. […] The effects of Compound 1, alone or in combination with approved IPF drugs pirfenidone or nintedanib, were studied in the bleomycin-induced lung fibrosis model in therapeutic mode. Compound 1 was dosed at 3 mg/kg, BID; pirfenidone was dosed at 100 mg/kg, BID; and nintedanib was dosed at 50 mg/kg, QD, all via oral gavage.

[2] = Dynamic vapor sorption (DVS); type: physicochemical; conditions: 25° C.
Excerpt: The Form B tris salt is an off-white crystalline powder consisting of small particles. […] (ΔH=111 J/g).

[3] = Kinetic solubility in biorelevant media; type: physicochemical; conditions: for solubility at 1 h / solubility at 4 h / solubility at 24 h: thermodynamic from solid; for solubility at 1 h: t = 1 hour; for solubility at 4 h: t = 4 hours; for solubility at 24 h: t = 24 hours
[4] = Solid-state stability of API, 2 weeks storage; type: physicochemical
Experimental: Stability of the solid API was assessed after storage at the following conditions for 2 weeks: • 25° C./58% RH (closed) • 25° C./58% RH (open) • 40° C./75% RH (closed) • 40° C./75% RH (open) • 80° C./ambient RH (closed)

[5] = fasted-state simulated gastric fluid (FaSSGF), fassgf or other biorelevant, FaSSGF pH 1.6, room temperature
[6] = fasted-state simulated intestinal fluid (FaSSIF), FaSSIF #2 pH 6.5, room temperature
[7] = fed-state simulated intestinal fluid (FeSSIF), FeSSIF #2 pH 5.8, room temperature

COC(=O)c1ccc2c(c1)NC(=O)/C2=C(\Nc1ccc(N(C)C(=O)CN2CCN(C)CC2)cc1)c1ccccc1 [nintedanib, reference compound]
Additive effect upon Ashcroft Score or αSMA quantitation when added to Compound 1 [1]: did not produce a statistically significant additive effect

Cc1ccc(=O)n(-c2ccccc2)c1 [pirfenidone, reference compound]
Additive effect upon Ashcroft Score or αSMA quantitation when added to Compound 1 [1]: did not produce a statistically significant additive effect

CC(C)(OCc1cc(-c2cccc(OC3CCC3)c2)n(-c2ccccc2N2CCC2)n1)C(=O)O [tris salt Form B]
Hygroscopicity ([2]; 5 to 95% RH): non-hygroscopic
Weight change ([2]; between 5 and 95% RH): approximately 0.1%
Solubility description ([3]; FaSSGF after 1, 4 and 24 hours): practically insoluble
solubility at 1 h [3, 5]: 0.46 µg/mL
solubility at 4 h [3, 5]: 0.35 µg/mL
solubility at 24 h [3, 5]: 0.39 µg/mL
solubility ([3]; fasted-state simulated intestinal fluid (FaSSIF), pH 6.5, thermodynamic from solid, FaSSIF, before gradual decrease, read-out: Solubility, initial): ≥ 3000 µg/mL
solubility at 1 h [3, 6]: 1110 µg/mL
solubility at 4 h [3, 6]: 851 µg/mL
solubility at 24 h [3, 6]: 733 µg/mL
solubility kinetic ([3]; fed-state simulated intestinal fluid (FeSSIF), pH 5.8, thermodynamic from solid, FeSSIF, before precipitation, read-out: Kinetic solubility, initially in solution): ≥ 3000 µg/mL
solubility at 1 h [3, 7]: 99 µg/mL
solubility at 4 h [3, 7]: 96 µg/mL
solubility at 24 h [3, 7]: 95 µg/mL
Content ([4]; 25° C. - 58% RH (c), 2 weeks): 101.1 % w/w
Impurity RRT 0.60 ([4]; 25° C. - 58% RH (c), 2 weeks): <0.05 % area
Impurity RRT 0.86 ([4]; 25° C. - 58% RH (c), 2 weeks): <0.05 % area
Impurity RRT 0.89 ([4]; 25° C. - 58% RH (c), 2 weeks): <0.05 % area
Impurity RRT 0.92 ([4]; 25° C. - 58% RH (c), 2 weeks): 0.13 % area
Impurity RRT 1.21 ([4]; 25° C. - 58% RH (c), 2 weeks): <0.05 % area
Main Peak ([4]; 25° C. - 58% RH (c), 2 weeks): 99.78 % Area
Total Impurities ([4]; 25° C. - 58% RH (c), 2 weeks): 0.22 % area
XRPD ([4]; 25° C. - 58% RH (c), 2 weeks): Consistent with Tris salt (Grp B)
Content ([4]; 25° C. - 58% RH (o), 2 weeks): 101.0 % w/w
Impurity RRT 0.60 ([4]; 25° C. - 58% RH (o), 2 weeks): <0.05 % area
Impurity RRT 0.86 ([4]; 25° C. - 58% RH (o), 2 weeks): <0.05 % area
Impurity RRT 0.89 ([4]; 25° C. - 58% RH (o), 2 weeks): <0.05 % area
Impurity RRT 0.92 ([4]; 25° C. - 58% RH (o), 2 weeks): 0.13 % area
Impurity RRT 1.21 ([4]; 25° C. - 58% RH (o), 2 weeks): <0.05 % area
Main Peak ([4]; 25° C. - 58% RH (o), 2 weeks): 99.78 % Area
Total Impurities ([4]; 25° C. - 58% RH (o), 2 weeks): 0.22 % area
XRPD ([4]; 25° C. - 58% RH (o), 2 weeks): Consistent with Tris salt (Grp B)
Chemical or physical changes on storage ([4]; 25° C./58% RH, 40° C./75% RH (closed and open), 80° C./ambient RH (closed), 2 weeks): No significant chemical or physical changes were observed
Content ([4]; 40° C. - 75% RH (c), 2 weeks): 101.3 % w/w
Impurity RRT 0.60 ([4]; 40° C. - 75% RH (c), 2 weeks): <0.05 % area
Impurity RRT 0.86 ([4]; 40° C. - 75% RH (c), 2 weeks): <0.05 % area
Impurity RRT 0.89 ([4]; 40° C. - 75% RH (c), 2 weeks): <0.05 % area
Impurity RRT 0.92 ([4]; 40° C. - 75% RH (c), 2 weeks): 0.13 % area
Impurity RRT 1.21 ([4]; 40° C. - 75% RH (c), 2 weeks): <0.05 % area
Main Peak ([4]; 40° C. - 75% RH (c), 2 weeks): 99.75 % Area
Total Impurities ([4]; 40° C. - 75% RH (c), 2 weeks): 0.25 % area
XRPD ([4]; 40° C. - 75% RH (c), 2 weeks): Consistent with Tris salt (Grp B)
Content ([4]; 40° C. - 75% RH (o), 2 weeks): 101.1 % w/w
Impurity RRT 0.60 ([4]; 40° C. - 75% RH (o), 2 weeks): <0.05 % area
Impurity RRT 0.86 ([4]; 40° C. - 75% RH (o), 2 weeks): <0.05 % area
Impurity RRT 0.89 ([4]; 40° C. - 75% RH (o), 2 weeks): <0.05 % area
Impurity RRT 0.92 ([4]; 40° C. - 75% RH (o), 2 weeks): 0.13 % area
Impurity RRT 1.21 ([4]; 40° C. - 75% RH (o), 2 weeks): <0.05 % area
Main Peak ([4]; 40° C. - 75% RH (o), 2 weeks): 99.77 % Area
Total Impurities ([4]; 40° C. - 75% RH (o), 2 weeks): 0.23 % area
XRPD ([4]; 40° C. - 75% RH (o), 2 weeks): Consistent with Tris salt (Grp B)
Content ([4]; 80° C. (c), 2 weeks): 101.0 % w/w
Impurity RRT 0.60 ([4]; 80° C. (c), 2 weeks): <0.05 % area
Impurity RRT 0.86 ([4]; 80° C. (c), 2 weeks): <0.05 % area
Impurity RRT 0.89 ([4]; 80° C. (c), 2 weeks): <0.05 % area
Impurity RRT 0.92 ([4]; 80° C. (c), 2 weeks): 0.13 % area
Impurity RRT 1.21 ([4]; 80° C. (c), 2 weeks): <0.05 % area
Main Peak ([4]; 80° C. (c), 2 weeks): 99.75 % Area
Total Impurities ([4]; 80° C. (c), 2 weeks): 0.25 % area
XRPD ([4]; 80° C. (c), 2 weeks): Consistent with Tris salt (Grp B)
Content ([4]; Initial): 101.2 % w/w
Impurity RRT 0.60 ([4]; Initial): <0.05 % area
Impurity RRT 0.86 ([4]; Initial): <0.05 % area
Impurity RRT 0.89 ([4]; Initial): <0.05 % area
Impurity RRT 0.92 ([4]; Initial): 0.13 % area
Impurity RRT 1.21 ([4]; Initial): <0.05 % area
Main Peak ([4]; Initial): 99.81 % Area
Total Impurities ([4]; Initial): 0.19 % area
XRPD ([4]; Initial): Consistent with Tris salt (Grp B)
